From PubChem BioAssay (NCI)
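Exposure lasted 48 hours, with cells grown in 96-well plates and compounds tested at five concentrations. At the TGI there is no net growth.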

Columns and labels:
Assay in all cases: NCI tumour cell line growth inhibition, 48 h
U251 CNS = system: U251 CNS
SNB-75 CNS = system: SNB-75 CNS
COLO 205 colon = system: COLO 205 colon
HCC-2998 colon = system: HCC-2998 colon
EKVX NSCLC = system: EKVX NSCLC
A549 NSCLC = system: A549 NSCLC
LOX IMVI melanoma = system: LOX IMVI melanoma
MCF7 breast = system: MCF7 breast
HT29 colon = system: HT29 colon
SK-MEL-28 melanoma = system: SK-MEL-28 melanoma
NCI-H23 lung = system: NCI-H23 lung
MDA-MB-435 = system: MDA-MB-435
T-47D breast = system: T-47D breast
HCT-116 colon = system: HCT-116 colon
NCI-H522 lung = system: NCI-H522 lung
NCI-H226 lung = system: NCI-H226 lung
HOP-92 NSCLC = system: HOP-92 NSCLC
786-0 renal = system: 786-0 renal
KM12 colon = system: KM12 colon
SNB-19 CNS = system: SNB-19 CNS
UACC-62 melanoma = system: UACC-62 melanoma
SF-295 CNS = system: SF-295 CNS
SK-MEL-5 melanoma = system: SK-MEL-5 melanoma
HCT-15 colon = system: HCT-15 colon
ACHN renal = system: ACHN renal
SK-MEL-2 melanoma = system: SK-MEL-2 melanoma
OVCAR-8 ovarian = system: OVCAR-8 ovarian
IGROV1 ovarian = system: IGROV1 ovarian
OVCAR-3 ovarian = system: OVCAR-3 ovarian
M14 melanoma = system: M14 melanoma
SF-268 CNS = system: SF-268 CNS
K-562 leukemia = system: K-562 leukemia
SR leukemia = system: SR leukemia
SN12C renal = system: SN12C renal
MALME-3M melanoma = system: MALME-3M melanoma
SK-OV-3 ovarian = system: SK-OV-3 ovarian
CAKI-1 renal = system: CAKI-1 renal
MDA-MB-231 breast = system: MDA-MB-231 breast
OVCAR-4 ovarian = system: OVCAR-4 ovarian
UACC-257 melanoma = system: UACC-257 melanoma
HL-60(TB) leukemia = system: HL-60(TB) leukemia
PC-3 prostate = system: PC-3 prostate
HS 578T breast = system: HS 578T breast
MDA-N = system: MDA-N
SF-539 CNS = system: SF-539 CNS
NCI/ADR-RES ovarian = system: NCI/ADR-RES ovarian
TK-10 renal = system: TK-10 renal
A498 renal = system: A498 renal
RXF 393 renal = system: RXF 393 renal
SW-620 colon = system: SW-620 colon
OVCAR-5 ovarian = system: OVCAR-5 ovarian
MOLT-4 leukemia = system: MOLT-4 leukemia
HOP-62 NSCLC = system: HOP-62 NSCLC
DU-145 prostate = system: DU-145 prostate
UO-31 renal = system: UO-31 renal
NCI-H460 lung = system: NCI-H460 lung
CCRF-CEM leukemia = system: CCRF-CEM leukemia
RPMI-8226 leukemia = system: RPMI-8226 leukemia

COc1cc(C(=O)NC(CCN)(c2ccccc2)c2ccccc2)cc(OC)c1OC
TGI (U251 CNS): > 100 µM
TGI (SNB-75 CNS): 30.4 µM
TGI (COLO 205 colon): 19 µM
TGI (HCC-2998 colon): 19.8 µM
TGI (EKVX NSCLC): > 31.6 µM
TGI (A549 NSCLC): > 31.6 µM
TGI (LOX IMVI melanoma): > 31.6 µM
TGI (MCF7 breast): > 31.6 µM
TGI (HT29 colon): 28.3 µM
TGI (SK-MEL-28 melanoma): 21.4 µM
TGI (NCI-H23 lung): > 31.6 µM
TGI (MDA-MB-435): > 31.6 µM
TGI (T-47D breast): > 31.6 µM
TGI (HCT-116 colon): > 95.3 µM
TGI (NCI-H522 lung): > 100 µM
TGI (NCI-H226 lung): 98.9 µM
TGI (HOP-92 NSCLC): 25.5 µM
TGI (786-0 renal): > 31.6 µM
TGI (KM12 colon): > 31.6 µM
TGI (SNB-19 CNS): > 100 µM
TGI (UACC-62 melanoma): > 31.6 µM
TGI (SF-295 CNS): > 31.6 µM
TGI (SK-MEL-5 melanoma): 18 µM
TGI (HCT-15 colon): > 31.6 µM
TGI (ACHN renal): > 31.6 µM
TGI (SK-MEL-2 melanoma): > 100 µM
TGI (OVCAR-8 ovarian): > 31.6 µM
TGI (IGROV1 ovarian): > 31.6 µM
TGI (OVCAR-3 ovarian): > 100 µM
TGI (M14 melanoma): 19.1 µM
TGI (SF-268 CNS): > 31.6 µM
TGI (K-562 leukemia): 23.1 µM
TGI (SR leukemia): 24 µM
TGI (SN12C renal): > 31.6 µM
TGI (MALME-3M melanoma): 18.4 µM
TGI (SK-OV-3 ovarian): > 31.6 µM
TGI (CAKI-1 renal): 87.6 µM
TGI (MDA-MB-231 breast): > 31.5 µM
TGI (OVCAR-4 ovarian): > 31.6 µM
TGI (UACC-257 melanoma): 22.3 µM
TGI (HL-60(TB) leukemia): 18.5 µM
TGI (PC-3 prostate): > 100 µM
TGI (HS 578T breast): > 92.6 µM
TGI (MDA-N): > 100 µM
TGI (SF-539 CNS): > 100 µM
TGI (NCI/ADR-RES ovarian): > 100 µM
TGI (TK-10 renal): > 31.6 µM
TGI (A498 renal): 17.5 µM
TGI (RXF 393 renal): 27.6 µM
TGI (SW-620 colon): > 31.6 µM
TGI (OVCAR-5 ovarian): > 100 µM
TGI (MOLT-4 leukemia): 21.5 µM
TGI (HOP-62 NSCLC): > 31.6 µM
TGI (DU-145 prostate): > 31.6 µM
TGI (UO-31 renal): > 64.4 µM
TGI (NCI-H460 lung): > 31.6 µM

CC1CC(C)CC(NC2=NCCO2)C1 (configuration not stated)
TGI (U251 CNS): > 100 µM
TGI (COLO 205 colon): > 100 µM
TGI (HCC-2998 colon): > 100 µM
TGI (EKVX NSCLC): > 100 µM
TGI (A549 NSCLC): > 100 µM
TGI (LOX IMVI melanoma): > 100 µM
TGI (MCF7 breast): > 100 µM
TGI (HT29 colon): > 100 µM
TGI (SK-MEL-28 melanoma): > 100 µM
TGI (NCI-H23 lung): > 100 µM
TGI (MDA-MB-435): > 100 µM
TGI (T-47D breast): > 100 µM
TGI (HCT-116 colon): > 100 µM
TGI (NCI-H522 lung): > 100 µM
TGI (NCI-H226 lung): > 100 µM
TGI (HOP-92 NSCLC): > 100 µM
TGI (786-0 renal): > 100 µM
TGI (KM12 colon): > 100 µM
TGI (SNB-19 CNS): > 100 µM
TGI (UACC-62 melanoma): > 100 µM
TGI (SF-295 CNS): > 100 µM
TGI (SK-MEL-5 melanoma): > 100 µM
TGI (HCT-15 colon): > 100 µM
TGI (ACHN renal): > 100 µM
TGI (SK-MEL-2 melanoma): > 100 µM
TGI (OVCAR-8 ovarian): > 100 µM
TGI (IGROV1 ovarian): > 100 µM
TGI (OVCAR-3 ovarian): > 100 µM
TGI (M14 melanoma): > 100 µM
TGI (SF-268 CNS): > 100 µM
TGI (K-562 leukemia): > 100 µM
TGI (CCRF-CEM leukemia): > 100 µM
TGI (SR leukemia): > 100 µM
TGI (SN12C renal): > 100 µM
TGI (MALME-3M melanoma): > 100 µM
TGI (CAKI-1 renal): > 100 µM
TGI (MDA-MB-231 breast): > 100 µM
TGI (OVCAR-4 ovarian): > 100 µM
TGI (UACC-257 melanoma): > 100 µM
TGI (HL-60(TB) leukemia): > 100 µM
TGI (PC-3 prostate): > 100 µM
TGI (HS 578T breast): > 100 µM
TGI (MDA-N): > 100 µM
TGI (SF-539 CNS): > 100 µM
TGI (NCI/ADR-RES ovarian): > 100 µM
TGI (TK-10 renal): > 100 µM
TGI (A498 renal): > 100 µM
TGI (RXF 393 renal): > 100 µM
TGI (SW-620 colon): > 100 µM
TGI (OVCAR-5 ovarian): > 100 µM
TGI (MOLT-4 leukemia): > 100 µM
TGI (HOP-62 NSCLC): > 100 µM
TGI (DU-145 prostate): > 100 µM
TGI (RPMI-8226 leukemia): > 100 µM
TGI (UO-31 renal): > 100 µM
TGI (NCI-H460 lung): > 100 µM
